Test results taken from patent US20090047243A1, “COMBINATIONS FOR THE TREATMENT OF B-CELL PROLIFERATIVE DISORDERS” (priority 2007, published 2009).
Structures can show the parent of a compound that is named as a salt.

How the values were obtained:
MOLP-8 MM cell line = experiment: Anti-proliferation assay (ATPLite, 72 h); type: cell-based, human; conditions: CGS-21680 × PDE inhibitor
Experimental: (§1) ANBL6 and INA-6 culture media was also supplemented with 10 ng/ml IL-6. […] MM.1S, MM.1R, OCI-ly10, Karpas 422, and SU-DHL6 cells were provided by the Dana Farber Cancer Institute. H929, RPMI-8226, GA-10, and Farage cells were from ATCC (Cat #'s CCL-155, CRL-9068, CRL-2392 and CRL-2630 respectively). MOLP-8, EJM, KSM-12-PE, and OPM2 were from DSMZ. The ANBL6 and INA-6 cell lines were provided by the M. D. Anderson Cancer Research Center. Compounds were prepared in DMSO at 1000× the highest desired concentration. Master plates were generated consisting of serially diluted compounds in 2- or 3-fold dilutions in 384-well format. For single agent dose response curves, the master plates consisted of 9 individual compounds at 12 concentrations in 2- or 3-fold dilutions. For combination matrices, master plates consisted of individual compounds at 6 or 9 concentrations at 2- or 3-fold dilutions. […] To obtain combination data, two master plates were diluted into the assay plates. […] Thirty microliters of ATPLite (Perkin Elmer) at room temperature was then added to each well. […] Measurements were taken at the top of the well using a luminescence aperture and a read time of 0.1 seconds per well. The percent inhibition (% I) for each well was calculated using the following formula: % I=[(avg. untreated wells-treated well)/(avg. untreated wells)]×100. […] Negative inhibition values result from local variations in treated wells as compared to untreated wells. […] The uncertainty of each fitted parameter was estimated from the range over which the change in reduced chi-squared was less than one, or less than minimum reduced chi-squared if that minimum exceeded one, to allow for underestimated σI errors. Single agent curve data were used to define a dilution series for each compound to be used for combination screening in a 6×6 matrix format. […] The Loewe additivity model was used to quantify combination effects. […] A “Synergy Score” was also used, where the Synergy Score S=log fX log fY ΣIdata(Idata-ILoewe), summed over all non-single-agent concentration pairs, and where log fX,Y is the natural logarithm of the dilution factors used for each single agent. This effectively calculates a volume between the measured and Loewe additive response surfaces, weighted towards high inhibition and corrected for varying dilution factors. An uncertainty σS was calculated for each synergy score, based on the measured errors for the Idata values and standard error propagation.

ANBL6 MM cell line = experiment: Anti-proliferation assay (ATPLite, 72 h); type: cell-based, human; conditions: CGS-21680 × PDE inhibitor
Experimental: as §1

INA-6 MM cell line = experiment: Anti-proliferation assay (ATPLite, 72 h); type: cell-based, human; conditions: CGS-21680 × PDE inhibitor
Experimental: as §1

OPM2 MM cell line = experiment: Anti-proliferation assay (ATPLite, 72 h); type: cell-based, human; conditions: CGS-21680 × PDE inhibitor
Experimental: as §1

EJM MM cell line = experiment: Anti-proliferation assay (ATPLite, 72 h); type: cell-based, human; conditions: CGS-21680 × PDE inhibitor
Experimental: as §1

patient CLL cells = experiment: Apoptosis assay (Hoechst 33342, flow cytometry, 48 h); type: cell-based, human; parameters: unit not given here; conditions: CGS-21680 0 μM
Excerpt: Blood samples were obtained in heparinized tubes with IRB-approved consent from flow cytometry-confirmed B-CLL patients that were either untreated or for whom at least 1 month had elapsed since chemotherapy. Patients with active infections or other serious medical conditions were not included in this study. Patients with white blood cell counts of less than 15,000/μl by automated analysis were excluded from this study. Whole blood was layered on Ficoll-Hystopaque (Sigma), and peripheral blood mononuclear cells (PBMC) isolated after centrification. […] One million cells were stained with anti-CD5-PE and anti-CD19-PE-Cy5 (Becton Dickenson, Franklin Lakes N.J.). The percentage of B-CLL cells was defined as the percentage of cells doubly expressing CD5 and CDl9, as determined by flow cytometry. […] Compound master plates were diluted 1:50 into complete media to create working compound dilutions. Compound crosses were then created by diluting two working dilution plates 1:10 into each plate of cells. […] Hoechst 33342 (Molecular Probes, Eugene Oreg.) at a final concentration of 0.25 μg/1 mL was added to each well, and the cells incubated at 37° C. for an additional ten minutes before being placed on ice until analysis. Plates were then analyzed on a LSR-II flow cytometer (Becton Dickenson, Franklin Lakes, N.J.) equipped with the High Throughput Sampling (HTS) option in high throughput mode. […] The apoptotic fraction was calculated using FlowJo software (Tree Star Inc., Ashland, Oreg.) after excluding debris by a FSC/SSC gate and subsequently gating for cells that accumulate the Hoechst dye.

A2A receptor = A2A receptor (Homo sapiens, UniProt P29274); conditions: cited from earlier work
Sequence of A2A receptor (P29274 whole entry): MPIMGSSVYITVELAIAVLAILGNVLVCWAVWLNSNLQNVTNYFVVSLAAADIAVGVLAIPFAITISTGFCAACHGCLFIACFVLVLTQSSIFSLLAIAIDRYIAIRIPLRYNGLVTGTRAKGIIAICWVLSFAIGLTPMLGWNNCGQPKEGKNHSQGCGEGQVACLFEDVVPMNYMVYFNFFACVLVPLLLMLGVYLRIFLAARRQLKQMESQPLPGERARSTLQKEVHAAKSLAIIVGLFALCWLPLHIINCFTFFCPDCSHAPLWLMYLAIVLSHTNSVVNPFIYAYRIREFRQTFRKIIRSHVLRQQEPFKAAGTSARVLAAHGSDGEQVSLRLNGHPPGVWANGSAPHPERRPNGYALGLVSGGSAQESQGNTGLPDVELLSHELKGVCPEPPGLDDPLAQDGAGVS

SMILES | synergy score (MOLP-8 MM cell line) | synergy score (ANBL6 MM cell line) | synergy score (INA-6 MM cell line) | synergy score (OPM2 MM cell line) | synergy score (EJM MM cell line) | Induction of apoptosis (patient CLL cells; Trequinsin 0.22 μM) | Induction of apoptosis (patient CLL cells; Trequinsin 2 μM) | Induction of apoptosis (patient CLL cells; Trequinsin […]) | Ki (A2A receptor)
COc1cc(-c2ccc(=O)[nH]n2)ccc1OC(F)F [Zardaverine, 6-(4-(difluoromethoxy)-3-methoxyphenyl)-3(2H)-Pyridazinone] | 3.06 | 2.11 | 2.69 | 1.15 | 0.98 |  |  |  | 
COc1cc2c(cc1OC)-c1cc(=Nc3c(C)cc(C)cc3C)n(C)c(=O)n1CC2 [Trequinsin hydrochloride, 2,3,6,7-tetrahydro-9,10-dimethoxy-3-methyl-2-((2,4,6-trimethylphenyl)imino)-4H-pyrimido(6,1-a)isoquinolin-4-one] | 4.7 | 4.55 | 3.93 | 4.74 | 4.81 | 8.9 | 19 | 9.9 | 
CCCCC#Cc1nc(N)c2ncn([C@@H]3O[C@H](C(=O)NCC)[C@@H](O)[C@H]3O)c2n1 [HE-NECA, hexynyladenosine-5′-N-ethylcarboxamide] |  |  |  |  |  |  |  |  | ~27 nM
